Source: PMC10892093 (Pharmaceutics, 2024)
pIC50: −log10 of the molar value.

Assays:
[1] = target: T1, UGT1A9 (Homo sapiens, UniProt O60656); assay: Inhibition of R-oxazepam glucuronidation in rUGT1A9 microsomes (UGT-overexpressing HEK293); type: biochemical
T1 construct: expressed in transfected cells; microsomal fraction
T1 sequence (O60656 26-530): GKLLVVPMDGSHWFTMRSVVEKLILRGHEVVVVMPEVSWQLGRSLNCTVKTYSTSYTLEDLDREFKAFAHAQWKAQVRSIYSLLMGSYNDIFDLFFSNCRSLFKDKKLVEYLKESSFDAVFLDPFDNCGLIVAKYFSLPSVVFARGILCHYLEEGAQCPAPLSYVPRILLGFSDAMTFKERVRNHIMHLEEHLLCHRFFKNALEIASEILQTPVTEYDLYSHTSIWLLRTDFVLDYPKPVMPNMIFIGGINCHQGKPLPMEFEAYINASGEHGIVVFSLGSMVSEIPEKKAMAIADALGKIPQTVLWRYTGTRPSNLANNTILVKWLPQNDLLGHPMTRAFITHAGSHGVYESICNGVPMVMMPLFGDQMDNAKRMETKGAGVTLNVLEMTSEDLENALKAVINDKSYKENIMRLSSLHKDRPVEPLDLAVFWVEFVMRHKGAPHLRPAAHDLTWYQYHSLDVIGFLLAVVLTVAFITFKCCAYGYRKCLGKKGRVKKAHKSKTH
Experimental: (§1) Human embryonic kidney cells (HEK293) stably overexpressing the single UGTs 1A9, 2B7, and 2B15 have been previously established and described. Cells were grown in DMEM supplemented with 350 μg/mL of geneticin and 10% FBS and harvested in PBS. Microsomal fractions of UGT-overexpressing cell lines were prepared by differential centrifugation using previously described protocols. Briefly, cell homogenates were prepared by resuspending pelleted cells in PBS, followed by five rounds of freeze–thaw cycles prior to homogenization. Recombinant microsomes (rUGTs) were prepared by centrifuging the cell homogenate at a low speed (9000× g for 30 min) followed by ultracentrifugation (34,000× g for 60 min), with the total protein subsequently determined using a BCA assay. Recombinant microsomes (UGT1A9 and 2B7) and homogenates (UGT2B15) were used for inhibition studies.
(§2) A Waters Corp BEH C18 Acquity UPLC column (1.7 µM, 2.1 × 100 mm) was used at a constant temperature of 40 °C for chromatographic separation. An elution gradient was used for 6.5 min with mobile phases A (5 mM ammonium formate) and B (100% methanol) under the following conditions: 90% A for 0.5 min, followed by a linear gradient for 3 min to 60% A, 1 min at 5% A, and re-equilibration for 1 min at 90% A.
(§3) The reaction was initiated by the addition of 4 mM UDPGA as the cofactor and incubated for 2 h at 37 °C. The reaction was terminated by adding 30 µL of an ice-cold stop solution (acetonitrile/methanol; 1:1). The reaction mixtures were centrifuged at 17,000× g for 30 min at 4 °C, and the supernatant was transferred to UPLC sample glass vial for analysis using UPLC–MS/MS (described above). […] As a positive control for inhibition assays, ketoconazole (10 μM and 100 µM) was used as a potential inhibitor of the UGTs 1A9, 2B7, and 2B15. Reactions containing only the cannabinoid vehicle (3% methanol) and without any inhibitor (cannabinoids) were used as a baseline reaction for 100% enzyme activity, while a reaction without UDPGA was used as a negative control. All experiments were performed in three independent experiments.
(§4) Determination of IC50 and Ki Values. […] The nonspecific binding constants (fu,inc) for cannabinoids in HEK293 microsomes, HLM, and HKM were previously determined and used to calculate the inhibition by unbound (‘free’) cannabinoid in each reaction. A nonlinear regression analysis and the following equation were used to calculate the IC50 values:(1) y = Bottom +Top − Bottom / 1 + 10^x − LogIC50A where ‘Bottom’ is the maximum observed inhibition (lowest percent activity) and ‘Top’ is the minimum observed inhibition (highest percent activity) for a given cannabinoid.

[2] = target: T2, UGT2B7 (Homo sapiens, UniProt P16662); assay: Inhibition of R- and S-oxazepam glucuronidation in rUGT2B7 microsomes (UGT-overexpressing HEK293); type: biochemical
T2 construct: expressed in transfected cells; microsomal fraction
T2 sequence (P16662 24-529): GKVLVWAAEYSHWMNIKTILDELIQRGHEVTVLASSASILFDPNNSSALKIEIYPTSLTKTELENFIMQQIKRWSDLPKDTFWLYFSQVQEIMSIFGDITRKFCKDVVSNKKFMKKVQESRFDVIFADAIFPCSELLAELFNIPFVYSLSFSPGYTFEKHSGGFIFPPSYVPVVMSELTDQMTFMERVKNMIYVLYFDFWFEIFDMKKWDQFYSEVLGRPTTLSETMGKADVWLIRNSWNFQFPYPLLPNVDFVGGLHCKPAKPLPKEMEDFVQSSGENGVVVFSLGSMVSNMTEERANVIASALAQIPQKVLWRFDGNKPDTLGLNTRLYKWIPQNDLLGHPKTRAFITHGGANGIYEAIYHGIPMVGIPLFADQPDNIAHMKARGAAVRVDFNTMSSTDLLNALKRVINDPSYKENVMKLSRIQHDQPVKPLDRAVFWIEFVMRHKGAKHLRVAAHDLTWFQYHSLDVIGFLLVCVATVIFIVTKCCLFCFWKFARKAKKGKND
Experimental: as §1, §2, §3, §4

[3] = target: T3, UGT2B15 (Homo sapiens, UniProt P54855); assay: Inhibition of S-oxazepam glucuronidation in rUGT2B15 homogenate/microsomes (UGT-overexpressing HEK293); type: biochemical
T3 construct: expressed in transfected cells; cell homogenate
T3 sequence (P54855 24-530): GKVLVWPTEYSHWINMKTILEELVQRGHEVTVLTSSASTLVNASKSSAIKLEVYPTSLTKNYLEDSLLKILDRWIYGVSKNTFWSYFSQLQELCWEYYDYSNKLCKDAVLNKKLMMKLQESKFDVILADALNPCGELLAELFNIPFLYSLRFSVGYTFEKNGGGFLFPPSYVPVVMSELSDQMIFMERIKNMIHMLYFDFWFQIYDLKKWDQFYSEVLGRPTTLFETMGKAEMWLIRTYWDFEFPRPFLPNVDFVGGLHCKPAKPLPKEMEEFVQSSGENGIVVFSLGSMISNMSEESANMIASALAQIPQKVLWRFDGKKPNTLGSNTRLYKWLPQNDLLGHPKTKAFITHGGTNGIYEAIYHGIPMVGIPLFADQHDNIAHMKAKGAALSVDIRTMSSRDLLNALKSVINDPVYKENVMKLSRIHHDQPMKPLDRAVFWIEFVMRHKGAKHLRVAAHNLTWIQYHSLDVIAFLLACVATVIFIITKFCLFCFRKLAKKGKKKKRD
Experimental: as §1, §2, §3, §4

[4] = system: human kidney microsomes (HKM); assay: Inhibition of R- and S-oxazepam glucuronidation in human kidney microsomes; settings: read-out: IC50, oxazepam glucuronidation (marginal or no inhibition)
Experimental: as §2, §3, §4

[5] = system: human liver microsomes (HLM); assay: Inhibition of R- and S-oxazepam glucuronidation in human liver microsomes; settings: read-out: IC50, oxazepam glucuronidation (marginal or no inhibition)
Experimental: as §2, §3, §4
The inhibition constant (Ki) was generated from the in vitro IC50 values assuming competitive inhibition (based on the Cheng–Prusoff equation; [49]). Considering that there have been no reports of the irreversible inhibition (e.g., mechanism-based inhibition) of UGTs, competitive inhibition was assumed as the worst-case scenario (highest inhibition) among all feasible types of reversible inhibitions. The substrate concentration used in the incubations was below the reported Km; therefore, the Ki values were predicted using Equation (2):(2) Ki=IC50/S/Km+1 where Km is Michaelis–Menten constant for the substrate, S is the substrate concentration, and IC50 is half-maximal inhibitory concentration.

[6] = value set for the static model; cited from earlier work
[7] = rUGT2B7 microsomes, 100 µM cannabinoid

For `CCCCCc1cc(O)c2c(c1)OC(C)(C)[C@@H]1CCC(C(=O)O)=C[C@@H]21` [11-COOH-THC, 11-nor-9-carboxy-Δ^9-tetrahydrocannabinol], the “Inhibition of R-oxazepam glucuronide formation” value ([1]; rUGT1A9 microsomes, 100 µM cannabinoid, vs control without cannabinoid) was 80%, the pIC50 ([1]; read-out: IC50, oxazepam glucuronidation (marginal or no inhibition), recombinant UGT microsomes (rUGT1A9)) was < 4.00 and the “Inhibition of R-oxazepam glucuronidation” value [2, 7] was 45%. The “Inhibition of S-oxazepam glucuronidation” value [2, 7] was 55%, the pIC50 ([2]; read-out: IC50, oxazepam glucuronidation (marginal or no inhibition), recombinant UGT microsomes (rUGT2B7)) was < 4.00 and the pIC50 ([3]; read-out: IC50, oxazepam glucuronidation (marginal or no inhibition), recombinant UGT microsomes (rUGT2B15)) was < 4.00. For the same molecule, the pIC50 [4] was < 4.00 and the pIC50 [5] was < 4.00.
Molecule `CC(=O)N1CCN(c2ccc(OCC3COC(Cn4ccnc4)(c4ccc(Cl)cc4Cl)O3)cc2)CC1` (stereo not drawn) [ketoconazole] has an inhibition at 2 h, 100 µM ([1]; human, pH 7.4, probe R,S-oxazepam 4 µM, oxazepam glucuronide formation, rUGT1A9 microsomes, 100 µM ketoconazole, range over the three enzymes) of 49 to 85%, an inhibition at 2 h, 100 µM ([2]; human, pH 7.4, probe R,S-oxazepam 60 µM, oxazepam glucuronide formation, Inhibition of oxazepam glucuronide formation, rUGT2B7 microsomes, 100 µM ketoconazole, range over the three enzymes) of 49 to 85% and an inhibition at 2 h, 100 µM ([3]; human, pH 7.4, probe R,S-oxazepam 12 µM, oxazepam glucuronide formation, rUGT2B15 microsomes, 100 µM ketoconazole, range over the three enzymes) of 49 to 85%.
In the case of `O=C1Nc2ccc(Cl)cc2C(c2ccccc2)=NC1O` (stereo not drawn) [oxazepam, Oxazepam], the “fm (fractional metabolism via glucuronidation)” value [6] is given as 0.8.
